Experimental findings from EP1592418B1, “USE OF ENDOCANNABINOID-LIKE COMPOUNDS FOR TREATING CNS DEGENERATIVE DISORDERS” (Research & Innovation S.p.A., priority 2003, dated 2004) are described below.

The nature of data set [1]: Solubility (physico-chemical properties). It is filed as physicochemical. To be noted: for solubility: organic solvent or mixture, in DMSO and in chloroform, read-out: solubility in organic solvents.
A further data set concerns Jurkat cells. In words: Evaluation of cellular viability by MTT assay. It is filed as cell-based, human. To be noted: 10 µM, incubated 18-24 hr, MTT, absorbance 570 nm. As to the method:
Jurkat, an acute T-lymphoblastic leukemia cell line generated from a person, have been used. Cell culture have been cultured in RPMI-1640 culture medium containing 10% FBS.
Jurkat cells were cultured at 1x10^5 cells/ml in RPMI 1640 medium supplemented with 10% fetal bovine serum (FBS), 2mM L-glutamine and 100 U/ml penicillin + 100 ug/ml streptomycin.
To detect drug effect in vitro, MTT [3-(4,5-dimethylthiazol-2-yl)-2,5-diphenyltetrazolium bromide] assay was used as described (Carmichael J et al., 1987 Cancer Res. 47, 936-42). Briefly, cells were seeded in triplicate on 96-well culture plates at a density of 20000 cells/well. The drugs were added in order to have the final concentration of 10 µM (1 µl of a solution of 10mM in DMSO) and incubated for 18-24 hr. Then MTT (0.5 mg/ml) was added to each well, and plates were incubated for an additional 1 to 3 hr in the dark at 37 °C. After this time the MTT solution was aspirated from the wells and 0.1 ml of DMSO was added. The plates were allowed to stand for 10 min, and then the absorbance was determined in a SpectraCount (Packard) microplate reader at 570 nm. The drug effect was determined by comparing absorbances of treated and untreated cells.
On the technique in general: Tetrazolium dyes change colour on reduction, which living cells bring about.

In data set [2] the test system is reverse passive Arthus reaction, mouse ear pinna. In words: Reverse passive Arthus reaction (RPA) in the mouse ear pinna: oedema and Evans blue extravasation. It is filed as in vivo. To be noted: mouse ear; for Extravasation / Riduction % (extravasation): 10 mg/Kg i.p.; for Extravasation: Evans blue density at 620 nm in ear homogenate supernatant, Vehicle 0,90±0,06, Naïve 0,04±0,01; for Oedema (mg): 10 mg/Kg intraperitoneally 1 hour before induction, weight increase of 8 mm punch vs contralateral ear, three hours after antigen, Vehicle 49,8 ± 1,2, Naive 23,7 ± 1,2; for Riduction % (extravasation): reduction of extravasation versus Vehicle (0). From the text: The Arthus model (RPA) is a model of immune-complex mediated tissue damage that involves the passive subcutaneous introduction of an antibody and the systemic administration of the corresponding antigen. This inflammatory model has been used to test the in vivo activity of the synthesised molecules.
The reverse passive Arthus reaction is induced, in the mouse ear pinna, by the subcutaneous injection of an excess of IgG anti human albumin followed by i.v. adiministration of the corresponding Ag (i.e. human albumin) together with Evans blue, 2 mg for each mouse, for the evaluation of extravasation.
(§1) The tested molecules were solubilised in DMSO, cremophor and PBS in a ratio of 1:1:18 and administered usually by intraperitonelly at the dosage of 10 mg/Kg 1 hour before the induction of anafilactic reaction. The animals were sacrificed 3 hours after the molecule administration.
The oedema and the extravasations are evaluated tree hours after the i.v. administration of the antigen. The oedema is evaluated as the increase of weight of lesioned ear area dissected by a 8 mm biopsy punch as compared to the contralateral unlesioned auricular tissues. The extravasation is measured determining the Evans blue density at 620 nm in the supernatants deriving from ear homogenates following centrifugation at 10000 x g for 20 min.

Data set [3] can be described thus: Rectal temperature (central cannabinoid effect, hypothermia). It is filed as in vivo, mouse. To be noted: for ΔT (°C) rectal temperature: treated animals, Vehicle 0,1 ± 0,2. Here is the method: as §1
TABLE 4. Rectal temperature in animals that have been treated with cannabinoids, endocannabinoids or molecules that are object of the present invention. Note a profound hypothermia induced by synthetic cannabinoid such as Win 55,212 or the endocannabinoid Anandamide while no alteration was induced by molecules that are object of the present invention.

The solubility is the concentration that dissolves in the medium under given conditions.

Take `CCCCCCCCCCCCCCCC(=O)NC1CCC1` [Example 27, N-cyclobutyl-palmitoyl amide]: in data set [1], the solubility is greater than 10000 µg/mL and the solubility in water entry is “scarcely soluble”. Besides, the “Growth inhibition (% of control)” value in the data set on Jurkat cells was 29.2 % of control. Besides, in data set [2], the Extravasation is 0,39±0,11, the “Oedema (mg)” value is recorded as 38,5 ± 0.9 mg and the “Riduction % (extravasation)” value came to 56.7%. Also, in data set [3], the “ΔT (°C) rectal temperature” value was 0,1 ± 0,1 °C.
On to `CCCCCCCCCCCCCCCCCC(N)=O` [Starylamide, stearylamide], for which the “Growth inhibition (% of control)” value in the data set with Jurkat cells is reported as 35.2 % of control. Also, in data set [2], the Extravasation is given as 0,31±0,08, the “Oedema (mg)” value was 30,8 ± 0.5 mg and the “Riduction % (extravasation)” value stood at 65.6%. In data set [3], the “ΔT (°C) rectal temperature” value is 0,3 ± 0,2 °C.
`Cc1c(C(=O)c2cccc3ccccc23)c2cccc3c2n1[C@H](CN1CCOCC1)CO3` [WIN 55.212, reference compound]: the “Growth inhibition (% of control)” value in the data set with Jurkat cells was 79.2 % of control. In data set [2], the Extravasation is 0,51 ±0,02, the “Oedema (mg)” value is on record as 33,7 ± 4,6 mg and the “Riduction % (extravasation)” value was 43.5%. Also, the “rectal temperature (in words)” value in data set [3] (mouse, in vivo) is “drastic reduction”. The “ΔT (°C) rectal temperature” value in data set [3] is -5,1 ± 1,3 °C.
As to `CCCCCCCCCCCCCCCC(=O)NC(C)C` [Example 2, N-isopropyl-palmitoyl amide], in data set [1], the solubility is greater than 10000 µg/mL and the solubility in water result was “scarcely soluble”. Besides, the “Growth inhibition (% of control)” value in the data set with Jurkat cells was 55.6 % of control. Besides, in data set [2], the Extravasation is given as 0,37±0,07, the “Oedema (mg)” value is given as 31,8 ± 1,8 mg and the “Riduction % (extravasation)” value was found to be 58.9%. Also, the “ΔT (°C) rectal temperature” value in data set [3] is 0,1 ± 0,1 °C.
`CCCCCCCCCCCCCCCC(=O)NCCC(C)C` [Example 35, N-isopentyl-palmitoyl amide]: in data set [1], the solubility is greater than 10000 µg/mL and the solubility in water entry is listed as “scarcely soluble”. In the data set on Jurkat cells, the “Growth inhibition (% of control)” value is recorded as 29.2 % of control. Besides, in data set [2], the Extravasation is reported as 0,58±0,09, the “Oedema (mg)” value was 38,3 ± 1.8 mg and the “Riduction % (extravasation)” value amounted to 35.6%. In addition, the “ΔT (°C) rectal temperature” value in data set [3] was 0,3 ± 0,2 °C.
For the compound `CCCCCCCCCCCCCCCCNC(C)=O` [Example 12, N-hexadecyl-acetyl-amide], in data set [1], the solubility is greater than 10000 µg/mL and the solubility in water entry is “scarcely soluble”. The “Growth inhibition (% of control)” value in the data set with Jurkat cells was 64.8 % of control. For the same compound, in data set [2], the Extravasation is recorded as 0,72±0,03, the “Oedema (mg)” value was 41,5 ± 1,9 mg and the “Riduction % (extravasation)” value was determined as 20.0%. Moreover, in data set [3], the “ΔT (°C) rectal temperature” value was 0,2 ± 0,2 °C.
As for `CCCCCCCCCCCCCCCCCC(=O)NC1CCCC1` [Example 38, N-cyclopentyl-stearoyl amide], in data set [1], the solubility is greater than 10000 µg/mL and the solubility in water result is on record as “scarcely soluble”. Further, in the data set on Jurkat cells, the “Growth inhibition (% of control)” value is 31.8 % of control. For the same compound, in data set [2], the Extravasation is recorded as 0,51±0,14, the “Oedema (mg)” value was 32,3 ± 3.3 mg and the “Riduction % (extravasation)” value stood at 43.4%. Moreover, the “ΔT (°C) rectal temperature” value in data set [3] is 0,2 ± 0,2 °C.
For `CCCCCCCCCCCCCC(=O)NC(C)C` [Example 1, N-isopropyl-myristoyl amide], in data set [1], the solubility is greater than 10000 µg/mL and the solubility in water result is “scarcely soluble”. The “Growth inhibition (% of control)” value in the data set on Jurkat cells is 55.0 % of control. Further, in data set [2], the Extravasation is given as 0,57±0,03, the “Oedema (mg)” value is on record as 39,9 ± 2,1 mg and the “Riduction % (extravasation)” value is on record as 36.7%. Further, in data set [3], the “ΔT (°C) rectal temperature” value was 0,2 ± 0,3 °C.
With `CCCCCCCCCCCCCCCC(=O)NCC(C)C` [Example 25, N-isobutyl-palmitoyl amide], in data set [1], the solubility is greater than 10000 µg/mL and the solubility in water entry was “scarcely soluble”. In data set [2], the Extravasation is 0,72±0,07, the “Oedema (mg)” value is 42,4 ± 2.4 mg and the “Riduction % (extravasation)” value is 20.0%. In data set [3], the “ΔT (°C) rectal temperature” value is 0,3 ± 0,1 °C.
Regarding `CCCCCCCCCCCCCCCCCC(=O)NC1CC1` [Example 20, N-cyclopropyl-stearoyl amide], in data set [1], the solubility was greater than 10000 µg/mL and the solubility in water entry is listed as “scarcely soluble”. Moreover, the “Growth inhibition (% of control)” value in the data set on Jurkat cells is 64.2 % of control. Also, in data set [2], the Extravasation is 0,35±0,06, the “Oedema (mg)” value is recorded as 33,1 ± 0.9 mg and the “Riduction % (extravasation)” value amounted to 61.2%.
For `CCCCCCCCCCCCCCCCCC(=O)NCCC(C)C` [Example 36, N-isopentyl-stearoyl amide], in data set [1], the solubility was greater than 10000 µg/mL and the solubility in water result is “scarcely soluble”. In addition, in the data set with Jurkat cells, the “Growth inhibition (% of control)” value is reported as 30.2 % of control. Further, in data set [2], the Extravasation is listed as 0,52±0,05, the “Oedema (mg)” value was 33,7 ± 3.2 mg and the “Riduction % (extravasation)” value is reported as 42.7%. For the same compound, the “ΔT (°C) rectal temperature” value in data set [3] is 0,1 ± 0,1 °C.
Turning to `CCCCCCCCCCCCCCCC(=O)NC1CC1` [Example 19, N-cyclopropyl-palmitoyl amide], in data set [1], the solubility is greater than 10000 µg/mL and the solubility in water result is given as “scarcely soluble”. Also, the “Growth inhibition (% of control)” value in the data set on Jurkat cells is reported as 56.2 % of control. Further, in data set [2], the Extravasation is 0,32±0,02, the “Oedema (mg)” value was 31,8 ± 3.6 mg and the “Riduction % (extravasation)” value was 64.6%.
In the case of `CCCCCCCCCCCCCCCCCC(=O)NCCC` [Example 18, N- propyl-stearoyl amide], in data set [1], the solubility is greater than 10000 µg/mL and the solubility in water entry is recorded as “scarcely soluble”. Besides, the “Growth inhibition (% of control)” value with Jurkat cells is 17.3 % of control. For the same compound, in data set [2], the Extravasation is 0,54±0,03, the “Oedema (mg)” value is reported as 33,3 ± 0.2 mg and the “Riduction % (extravasation)” value was 40.0%.
In the case of `CCCCCCCCCCCCCCCCCC(=O)NC(C)C` [Example 4, N-Isopropyl-stearoyl amide], in data set [1], the solubility was greater than 10000 µg/mL and the solubility in water entry is “scarcely soluble”. Further, the “Growth inhibition (% of control)” value in the data set on Jurkat cells is 45.3 % of control. In addition, in data set [2], the Extravasation is 0,20±0,03, the “Oedema (mg)” value is 26,5 ± 0,9 mg and the “Riduction % (extravasation)” value is on record as 77.8%. In addition, the “ΔT (°C) rectal temperature” value in data set [3] is 0,2 ± 0,1 °C.
As to `CCCCCCCCCCCCCCCCCC(=O)NCCCCC` [Example 34, N- pentyl-stearoyl amide], in data set [1], the solubility is greater than 10000 µg/mL and the solubility in water entry was “scarcely soluble”. In the data set on Jurkat cells, the “Growth inhibition (% of control)” value is listed as 34.2 % of control. Moreover, in data set [2], the Extravasation is reported as 0,62±0,08, the “Oedema (mg)” value is listed as 42,5 ± 3.5 mg and the “Riduction % (extravasation)” value came out at 31.2%. Besides, in data set [3], the “ΔT (°C) rectal temperature” value was 0,1 ± 0,1 °C.
Consider `CCCCCCCCCCCCCCCC(=O)NCCC` [Example 17, N-propyl-palmitoyl amide], for which, in data set [1], the solubility is greater than 10000 µg/mL and the solubility in water result is recorded as “scarcely soluble”. Moreover, the “Growth inhibition (% of control)” value in the data set with Jurkat cells was 21.4 % of control. For the same compound, in data set [2], the Extravasation is given as 0,52±0,12, the “Oedema (mg)” value is 32,3 ± 2.7 mg and the “Riduction % (extravasation)” value is on record as 32.3%.
Turning to `CCCCCCCCCCCCCCCC(N)=O` [Palmitoylamide], in the data set on Jurkat cells, the “Growth inhibition (% of control)” value is given as 33.9 % of control. In addition, in data set [2], the Extravasation was 0,35±0,05, the “Oedema (mg)” value is listed as 33,2 ± 0.7 mg and the “Riduction % (extravasation)” value is 61.2%. Further, the “ΔT (°C) rectal temperature” value in data set [3] is 0,2 ± 0,1 °C.
